Results from US11401555B2, “Genetic polymorphisms associated with stroke, methods of detection and uses thereof” (CELERA CORPORATION, priority 2008, dated 2022).

Experiment: Stroke statin response (SSR) in the CARE pravastatin trial: pravastatin-treated versus placebo-treated, by SNP genotype
Format: in vivo, human
Details: for EVENTS: stroke events in pravastatin arm

Compound `CC[C@H](C)C(=O)O[C@H]1C[C@H](O)C=C2C=C[C@H](C)[C@H](CC[C@@H](O)C[C@@H](O)CC(=O)O)[C@H]21` [pravastatin] has an EVENTS (CARE, rs2038366, GEN, genotype GG, TOTAL 539) of 29, an EVENTS (CARE, rs2038366, GEN, genotype GT, TOTAL 638) of 28 and an EVENTS (CARE, rs2038366, GEN, genotype TT, TOTAL 151) of 10. The EVENTS (CARE, rs2038366, REC, genotype GT + TT, TOTAL 789) was 38, the EVENTS (CARE, rs3213646 EXOD1, DOM, genotype CT + CC, TOTAL 1108) was 51 and the EVENTS (CARE, rs3213646 EXOD1, GEN, genotype CC, TOTAL 417) was 27. The EVENTS (CARE, rs3213646 EXOD1, GEN, genotype CT, TOTAL 691) was 24, the EVENTS (CARE, rs3213646 EXOD1, GEN, genotype TT, TOTAL 245) was 13 and the EVENTS (CARE, rs3213646 EXOD1, REC, genotype CT + TT, TOTAL 936) was 37. It also gave an EVENTS (CARE, rs3900940 MYH15, DOM, genotype CT + CC, TOTAL 721) of 36, an EVENTS (CARE, rs3900940 MYH15, GEN, genotype CC, TOTAL 160) of 13 and an EVENTS (CARE, rs3900940 MYH15, GEN, genotype CT, TOTAL 561) of 23. For the same compound, the EVENTS (CARE, rs3900940 MYH15, GEN, genotype TT, TOTAL 620) was 30, the EVENTS (CARE, rs3900940 MYH15, REC, genotype CT + TT, TOTAL 1181) was 53 and the HR (pravastatin vs placebo, ENDPT4F1, hCV1463226 rs10890 FXN, GEN, genotype CC) was 0.48. For the same compound, the HR (pravastatin vs placebo, ENDPT4F1, hCV1463226 rs10890 FXN, GEN, genotype TT) was 0.41, the HR (pravastatin vs placebo, ENDPT4F1, hCV1846459 rs4803759, GEN, genotype CC) was 0.66 and the HR (pravastatin vs placebo, ENDPT4F1, hCV1846459 rs4803759, GEN, genotype TC) was 0.62. For the same compound, the HR (pravastatin vs placebo, ENDPT4F1, hCV1846459 rs4803759, REC, genotype TC + CC) was 0.64, the HR (pravastatin vs placebo, ENDPT4F1, hCV2442143 rs12544854 ASAH1, DOM, genotype TC + TT, first listing (TOTAL 1070)) was 0.57 and the HR (pravastatin vs placebo, ENDPT4F1, hCV2442143 rs12544854 ASAH1, DOM, genotype TC + TT, second listing (TOTAL 1059)) was 0.56. The HR (pravastatin vs placebo, ENDPT4F1, hCV2442143 rs12544854 ASAH1, GEN, genotype TC, first listing (TOTAL 713)) was 0.55, the HR (pravastatin vs placebo, ENDPT4F1, hCV2442143 rs12544854 ASAH1, GEN, genotype TC, second listing (TOTAL 704)) was 0.57 and the HR (pravastatin vs placebo, ENDPT4F1, hCV2741051 rs2230806 ABCA1, DOM, genotype TC + TT, first listing (TOTAL 709)) was 0.47. The HR (pravastatin vs placebo, ENDPT4F1, hCV2741051 rs2230806 ABCA1, DOM, genotype TC + TT, second listing (TOTAL 711)) was 0.47, the HR (pravastatin vs placebo, ENDPT4F1, hCV2741051 rs2230806 ABCA1, GEN, genotype TC, first listing (TOTAL 597)) was 0.47 and the HR (pravastatin vs placebo, ENDPT4F1, hCV2741051 rs2230806 ABCA1, GEN, genotype TC, second listing (TOTAL 603)) was 0.5. It also gave an HR (pravastatin vs placebo, ENDPT4F1, hCV2862873 rs780094 GCKR, DOM, genotype TC + TT) of 0.6, an HR (pravastatin vs placebo, ENDPT4F1, hCV2959482 rs3890182 ABCA1, DOM, genotype AG + AA) of 0.34 and an HR (pravastatin vs placebo, ENDPT4F1, hCV2959482 rs3890182 ABCA1, GEN, genotype AG) of 0.34. For the same compound, the HR (pravastatin vs placebo, ENDPT4F1, hCV3216551 rs562338, GEN, genotype GG) was 0.59, the HR (pravastatin vs placebo, ENDPT4F1, hCV8757333 rs1800588 LIPC, DOM, genotype TC + TT) was 0.49 and the HR (pravastatin vs placebo, ENDPT4F1, hCV8942032 rs1264352 DDR1, DOM, genotype CG + CC, risk allele C) was 0.41. It also gave an HR (pravastatin vs placebo, ENDPT4F1, hCV9296529 rs4358307, GEN, genotype GA) of 0.5, an HR (pravastatin vs placebo, ENDPT4F1, hCV9324316 rs9305020, GEN, genotype TT) of 0.7 and an HR (pravastatin vs placebo, ENDPT4F1, hCV9324316 rs9305020, REC, genotype CT + TT) of 0.76. The HR (pravastatin vs placebo, ENDPT4F1, hCV9473891 rs1555173, REC, genotype CT + TT) was 0.75, the HR (pravastatin vs placebo, ENDPT4F1, hCV16164743 rs2928932, GEN, genotype AA) was 0.6 and the HR (pravastatin vs placebo, ENDPT4F1, hCV16164743 rs2928932, GEN, genotype CC) was 0.31. The HR (pravastatin vs placebo, ENDPT4F1, hCV22275299 rs28927680 BUD13, GEN, genotype GC) was 0.2, the HR (pravastatin vs placebo, ENDPT4F1, hCV26682080 rs4420638, DOM, genotype GA + GG) was 0.45 and the HR (pravastatin vs placebo, ENDPT4F1, hCV26682080 rs4420638, GEN, genotype GA) was 0.5. It also gave an HR (pravastatin vs placebo, ENDPT4F1, hCV26682080 rs4420638, GEN, genotype GG) of 0.25, an HR (pravastatin vs placebo, ENDPT4F1, hCV29480044 rs10516433 TSPAN5, GEN, genotype TC) of 0.46 and an HR (pravastatin vs placebo, ENDPT4F1, hCV29480044 rs10516433 TSPAN5, REC, genotype TC + CC) of 0.67. It also gave an HR (pravastatin vs placebo, ENDPT4F1, hCV29566897 rs10507755, REC, genotype CT + TT) of 0.76, an HR (pravastatin vs placebo, ENDPT4F1, hCV30454150 rs10516434 TSPAN5, GEN, genotype TC) of 0.46 and an HR (pravastatin vs placebo, ENDPT4F1, hCV30454150 rs10516434 TSPAN5, REC, genotype TC + CC) of 0.67. It also gave an HR (pravastatin vs placebo, ENDPT4F1, hDV77718013, REC, genotype TC + CC) of 0.74, an HR (rs1048621 (hCV1619596, SDCBP2), ALL, genotype AA, MODE GEN, ENDPT4F1, pravastatin vs placebo, CARE) of 0.16 and an HR (rs1048621 (hCV1619596, SDCBP2), ALL, genotype AG + AA, MODE DOM, ENDPT4F1, pravastatin vs placebo, CARE) of 0.69. It also gave an HR (rs1048621 (hCV1619596, SDCBP2), ALL, genotype AG + GG, MODE REC, ENDPT4F1, pravastatin vs placebo, CARE) of 0.82, an HR (rs1048621 (hCV1619596, SDCBP2), ALL, genotype AG, MODE GEN, ENDPT4F1, pravastatin vs placebo, CARE) of 0.89 and an HR (rs1048621 (hCV1619596, SDCBP2), ALL, genotype GG, MODE GEN, ENDPT4F1, pravastatin vs placebo, CARE) of 0.77. It also gave an HR (rs1264352 (hCV8942032, DDR1), genotype CC, MODE GEN, ENDPT4F1, pravastatin vs placebo, CARE) of 0.86, an HR (rs1264352 (hCV8942032, DDR1), genotype CG + CC, MODE DOM, ENDPT4F1, pravastatin vs placebo, CARE) of 0.41 and an HR (rs1264352 (hCV8942032, DDR1), genotype CG + GG, MODE REC, ENDPT4F1, pravastatin vs placebo, CARE) of 0.73. For the same compound, the HR (rs1264352 (hCV8942032, DDR1), genotype CG, MODE GEN, ENDPT4F1, pravastatin vs placebo, CARE) was 0.39, the HR (rs1264352 (hCV8942032, DDR1), genotype GG, MODE GEN, ENDPT4F1, pravastatin vs placebo, CARE) was 0.84 and the HR (rs2857595 (hCV16134786), ALL, genotype AA, MODE GEN, ENDPT4F1, pravastatin vs placebo, CARE) was 0.23. For the same compound, the HR (rs2857595 (hCV16134786), ALL, genotype AG + AA, MODE DOM, ENDPT4F1, pravastatin vs placebo, CARE) was 0.58, the HR (rs2857595 (hCV16134786), ALL, genotype AG + GG, MODE REC, ENDPT4F1, pravastatin vs placebo, CARE) was 0.77 and the HR (rs2857595 (hCV16134786), ALL, genotype AG, MODE GEN, ENDPT4F1, pravastatin vs placebo, CARE) was 0.67. It also gave an HR (rs2857595 (hCV16134786), ALL, genotype GG, MODE GEN, ENDPT4F1, pravastatin vs placebo, CARE) of 0.8, an HR (rs11079160 (hCV32160712), ALL, genotype AA, MODE GEN, ENDPT4F1, pravastatin vs placebo, CARE) of 0.86 and an HR (rs11079160 (hCV32160712), ALL, genotype TA + AA, MODE REC, ENDPT4F1, pravastatin vs placebo, CARE) of 0.78. For the same compound, the HR (rs11079160 (hCV32160712), ALL, genotype TA + TT, MODE DOM, ENDPT4F1, pravastatin vs placebo, CARE) was 0.55, the HR (rs11079160 (hCV32160712), ALL, genotype TA, MODE GEN, ENDPT4F1, pravastatin vs placebo, CARE) was 0.62 and the HR (rs11079160 (hCV32160712), ALL, genotype TT, MODE GEN, ENDPT4F1, pravastatin vs placebo, CARE) was 0.24. For the same compound, the HR (rs12762303 (hCV27830265, ALOX5), genotype AA, MODE GEN, ENDPT4F1, pravastatin vs placebo, CARE, first listing (TOTAL 1005)) was 0.84, the HR (rs12762303 (hCV27830265, ALOX5), genotype AA, MODE GEN, ENDPT4F1, pravastatin vs placebo, CARE, second listing (TOTAL 1002)) was 0.85 and the HR (rs12762303 (hCV27830265, ALOX5), genotype GA + AA, MODE REC, ENDPT4F1, pravastatin vs placebo, CARE, first listing (TOTAL 1381)) was 0.73. The HR (rs12762303 (hCV27830265, ALOX5), genotype GA + AA, MODE REC, ENDPT4F1, pravastatin vs placebo, CARE, second listing (TOTAL 1377)) was 0.73, the HR (rs12762303 (hCV27830265, ALOX5), genotype GA + GG, MODE DOM, ENDPT4F1, pravastatin vs placebo, CARE, first listing (TOTAL 399)) was 0.46 and the HR (rs12762303 (hCV27830265, ALOX5), genotype GA + GG, MODE DOM, ENDPT4F1, pravastatin vs placebo, CARE, second listing (TOTAL 398)) was 0.46. For the same compound, the HR (rs12762303 (hCV27830265, ALOX5), genotype GA, MODE GEN, ENDPT4F1, pravastatin vs placebo, CARE, first listing (TOTAL 376)) was 0.47, the HR (rs12762303 (hCV27830265, ALOX5), genotype GA, MODE GEN, ENDPT4F1, pravastatin vs placebo, CARE, second listing (TOTAL 375)) was 0.47 and the HR (rs12762303 (hCV27830265, ALOX5), genotype GG, MODE GEN, ENDPT4F1, pravastatin vs placebo, CARE, first listing (TOTAL 23)) was 0. The HR (rs12762303 (hCV27830265, ALOX5), genotype GG, MODE GEN, ENDPT4F1, pravastatin vs placebo, CARE, second listing (TOTAL 23)) was 0.
